These results are taken from US8461193B2, “Substituted pyrrolo-pyrazole derivatives active as kinase inhibitors” (Nerviano Medical Sciences S.R.L., priority 2005, dated 2013).

The test system of assay [1] is IGF1-induced S6 phosphorylation. Briefly: Growth factor induced S6 ribosomal protein phosphorylation in primary human fibroblasts. The following applies: normal human dermal fibroblasts (NHDF), stimulated with 10 nM IGF-1; read-out: Inhibition of IGF1-induced S6 phosphorylation IC50. Format: cell-based. The method, then: Growth Factor Induced S6 Ribosomal Protein Phosphorylation in Primary Human Fibroblasts.
Phosphorylation of S6 ribosomal protein in response to growth factor stimulation of normal human dermal fibroblasts (NHDF) was used to assess compound potency in inhibiting IGF-1 induced signal transduction in cells, and selectivity towards EGF and PDGF stimulus. NHDF cells obtained from PromoCell (Heidelberg, Germany), were maintained at 37° C. in a humidified atmosphere with 5% CO2 in complete Fibroblast Growth Medium (PromoCell). For assay, NHDF were seeded in 384-well tissue culture plates (clear- and flat-bottomed black plates; Matrix Technologies Inc., Hudson, N.H., USA) at a density of 5000 cells/well in serum-free medium containing 0.1% bovine serum albumin (BSA) and incubated for 5 days. Starved cells were treated for 1 hour with desired doses of compounds and then stimulated for a further 2 hours with either 10 nM IGF-1 (Invitrogen Corp., CA, USA), 10 nM EGF (Gibco BRL, USA) or 1 nM PDGF-B/B (Roche Diagnostics GmbH, Germany). Cells were then fixed in PBS/3.7% paraformaldehyde for 20 minutes at room temperature, washed ×2 with PBS, and permeabilized with PBS/0.3% Triton X-100 for 15 minutes. Wells were then saturated with PBS/1% non-fat dry milk (Bio-Rad Laboratories, Hercules, Calif., USA) for 1 hour, and then probed for 1 hour at 37° C. with anti-phospho-S6 (Ser 235/236) antibody (Cell Signaling Technology, Beverly, Mass., USA, cat. #2211) at 1/200 dilution in PBS/1% milk/0.3% Tween 20. […] Fluorescence images in the DAPI and Cy5™ channels were automatically acquired, stored and analysed using a Cellomics ArrayScan™ IV instrument (Cellomics, Pittsburgh, USA); the Cellomics Cytotoxicity Algorithm was used to quantify cytoplasmic fluorescence associated with phospho-S6 (Cy5™ signal parameter: “Mean Lyso Mass-pH”) for each cell in 10 fields/well, and eventually expressed as a mean population value. […]

Assay [2] deals with T1, IGF1R (Homo sapiens, UniProt P08069). Briefly: Western blot analysis of receptor phosphorylation following stimulation with IGF-1 in MCF-7 human breast cancer cells. Type of assay: cell-based. Also noted: endogenous in cells; host or cells: MCF-7 (ATCC# HTB-22). The following applies: starved MCF-7 cells, increasing concentrations of compound prior to 10 nM IGF1. The method, then: Cell-Based Assays for Inhibitors of IGF-1R Kinase Activity Western Blot Analysis of Receptor Phosphorylation Following Stimulation with IGF-1 in MCF-7 Human Breast Cancer Cells
MCF-7 cells (ATCC# HTB-22) were seeded in 12-well tissue culture plates at 2×10^5 cells/well in E-MEM medium (MEM+Earle's BSS+2 mM glutamine+0.1 mM non-essential amino acids)+10% FCS, and incubated overnight at 37° C., 5% CO2, 100% relative humidity. Cells were then starved by replacing E-MEM+10% FCS with E-MEM+0.1% BSA, and incubating overnight. After this incubation, wells were treated with desired concentrations of compound for 1 hour at 37° C., and were then stimulated with 10 nM recombinant human IGF-1 (Invitrogen, Carlsbad, Calif., USA) for 10 minutes at 37° C. […] Cell lysates were cleared by centrifugation at 10,000×g for 5 minutes, and 10 microg/lane of cleared lysate protein were run on NuPAGE gels (NuPAGE 4-12% 10-lane Bis-Tris gels, Invitrogen) with MOPS running buffer, then transferred onto Hybond-ECL nitrocellulose filters (Amersham Biosciences, Little Chalfont, Buckinghamshire, UK) using Mini PROTEAN II chambers (Bio-Rad Laboratories, Hercules, Calif., USA). […] In either case, filters were then washed for 30 minutes with several changes of TBS+0.15% Tween 20, and incubated for 1 hour in washing buffer containing 1/5000 dilution of horseradish peroxidase conjugated anti-rabbit IgG (Amersham, product #NA934), then were washed again and developed using the ECL chemiluminescence system (Amersham) according to manufacturer's recommendations. Unless otherwise stated, reagents used were from Sigma-Aldrich, St. Louis, Mo., USA.
On the technique in general: In western blotting, separated proteins are transferred to a membrane and probed.
Target sequence in this assay (P08069 31-1367): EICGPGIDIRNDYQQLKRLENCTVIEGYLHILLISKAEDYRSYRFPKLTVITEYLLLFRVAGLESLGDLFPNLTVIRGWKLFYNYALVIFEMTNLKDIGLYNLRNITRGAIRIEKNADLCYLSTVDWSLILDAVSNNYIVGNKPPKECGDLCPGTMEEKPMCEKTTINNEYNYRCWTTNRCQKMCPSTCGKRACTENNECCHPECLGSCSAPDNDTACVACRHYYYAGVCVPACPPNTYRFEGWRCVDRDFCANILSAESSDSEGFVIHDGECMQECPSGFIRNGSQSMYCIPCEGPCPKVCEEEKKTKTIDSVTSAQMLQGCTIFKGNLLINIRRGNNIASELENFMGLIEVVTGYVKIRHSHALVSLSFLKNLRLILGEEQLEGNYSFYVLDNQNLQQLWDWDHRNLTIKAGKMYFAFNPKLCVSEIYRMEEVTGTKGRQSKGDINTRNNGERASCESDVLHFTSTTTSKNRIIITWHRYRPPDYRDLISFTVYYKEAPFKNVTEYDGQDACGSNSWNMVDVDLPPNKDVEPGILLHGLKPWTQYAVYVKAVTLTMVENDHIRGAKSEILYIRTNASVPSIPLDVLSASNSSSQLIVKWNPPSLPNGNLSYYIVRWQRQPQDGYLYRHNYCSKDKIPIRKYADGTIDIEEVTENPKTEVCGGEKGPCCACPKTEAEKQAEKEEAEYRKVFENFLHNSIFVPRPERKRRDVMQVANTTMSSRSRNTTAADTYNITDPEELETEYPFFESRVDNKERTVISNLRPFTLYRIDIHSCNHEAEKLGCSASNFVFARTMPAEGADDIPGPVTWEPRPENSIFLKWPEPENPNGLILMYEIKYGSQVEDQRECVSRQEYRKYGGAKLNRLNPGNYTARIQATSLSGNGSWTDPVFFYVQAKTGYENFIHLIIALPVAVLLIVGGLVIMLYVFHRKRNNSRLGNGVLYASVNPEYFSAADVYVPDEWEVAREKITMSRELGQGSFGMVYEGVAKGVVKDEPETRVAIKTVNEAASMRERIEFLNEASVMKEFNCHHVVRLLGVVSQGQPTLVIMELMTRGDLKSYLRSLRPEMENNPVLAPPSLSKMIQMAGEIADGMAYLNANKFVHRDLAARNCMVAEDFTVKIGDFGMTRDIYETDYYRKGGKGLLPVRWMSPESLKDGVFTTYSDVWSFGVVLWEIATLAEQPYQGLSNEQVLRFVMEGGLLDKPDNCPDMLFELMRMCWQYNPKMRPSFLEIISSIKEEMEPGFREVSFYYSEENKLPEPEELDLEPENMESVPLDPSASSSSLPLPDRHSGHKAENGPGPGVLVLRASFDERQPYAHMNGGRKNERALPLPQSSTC

In assay [3] the target is T1, IGF1R. The assay can be described thus: Biochemical assay for inhibitors of IGF-1R kinase activity (trans-phosphorylation assay, robotized Dowex assay). The arrangement: amino acid residues 960-1367 of precursor protein; made in house; host or cells: H5 insect cells (baculovirus; virus made in Sf21 cells). The method, then:
ID NO: 2). […] The inhibitory activity of putative kinase inhibitors and the potency of selected compounds were determined using a trans-phosphorylation assay.
Target sequence in this assay (P08069 960-1367): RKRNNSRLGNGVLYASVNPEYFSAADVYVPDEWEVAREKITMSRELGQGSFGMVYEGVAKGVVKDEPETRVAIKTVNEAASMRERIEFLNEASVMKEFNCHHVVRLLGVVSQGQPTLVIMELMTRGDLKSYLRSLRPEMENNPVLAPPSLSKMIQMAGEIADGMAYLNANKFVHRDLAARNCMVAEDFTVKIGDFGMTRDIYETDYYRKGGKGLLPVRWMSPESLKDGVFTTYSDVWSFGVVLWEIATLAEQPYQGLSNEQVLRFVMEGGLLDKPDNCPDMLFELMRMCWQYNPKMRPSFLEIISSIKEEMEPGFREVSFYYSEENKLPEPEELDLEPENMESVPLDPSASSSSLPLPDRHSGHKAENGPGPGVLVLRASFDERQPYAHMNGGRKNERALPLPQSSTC

[4] abbreviates: 6 nM enzyme, 6 microM ATP, 10 microM peptide substrate, read-out: IGF1R IC50 (μM) Biochemical assay.

Read-outs that look alike come from different tables or passages of the source.

A word on the IC50: it is the concentration needed to halve the response being measured. Take `CN1CCN(c2ccc(C(=O)Nc3n[nH]c4c3CN(S(=O)(=O)c3cc(F)cc(F)c3)C4(C)C)c(NC(=O)[C@@H]3CCCO3)c2)CC1` [Compound 1, (S)-Tetrahydro-furan-2-carboxylic acid [2-[5-(3,5-difluoro-benzenesulfonyl)-6,6-dimethyl-1,4,5,6-tetrahydro-pyrrolo[3,4-c]pyrazol-3-ylcarbamoyl]-5-(4-methyl-piperazin-1-yl)-phenyl]-amide]: the IC50 in assay [1] was found to be 740 nM; in assay [3] (setting [4]) it was 0.17 µM. In assay [2], the “inhibition of IGF1-induced IGF1R auto-phosphorylation (pIGF1R band, FIG. 1)” value (from here on “inhibition”) is given as “inhibition of IGF1-induced IGF1R auto-phosphorylation”.

Consider `CN1CCN(c2ccc(C(=O)Nc3n[nH]c4c3CN(S(=O)(=O)c3cc(F)cc(F)c3)C4(C)C)c(NC(=O)c3cc[nH]c3)c2)CC1` [Compound 11, 1H-pyrrole-3-carboxylic acid [2-[5-(3,5-difluoro-benzenesulfonyl)-6,6-dimethyl-1,4,5,6-tetrahydro-pyrrolo[3,4-c]pyrazol-3-ylcarbamoyl]-5-(4-methyl-piperazin-1-yl)-phenyl]-amide], for which the IC50 in assay [1] was determined as 300 nM; in assay [3], 0.09 µM. Besides, the “inhibition” value in assay [2] is “inhibition of IGF1-induced IGF1R auto-phosphorylation”.

As to `CC(C)CNc1cc(N2CCN(C)CC2)ccc1C(=O)Nc1n[nH]c2c1CN(S(=O)(=O)c1cc(F)cc(F)c1)C2(C)C.Cl` [Compound 90, N-[5-(3,5-Difluoro-benzenesulfonyl)-6,6-dimethyl-1,4,5,6-tetrahydro-pyrrolo[3,4-c]pyrazol-3-yl]-2-isobutylamino-4-(4-methyl-piperazin-1-yl)-benzamide hydrochloride], the half-inhibitory concentration (IC50) was 5300 nM in assay [1] and 0.46 µM in assay [3] (setting [4]). Moreover, the “inhibition” value in assay [2] is recorded as “inhibition of IGF1-induced IGF1R auto-phosphorylation”.
